Experimental data reported in patent US4764358A, “Radiolabeled dimethyl branched long chain fatty acid for heart imaging” (The United States of America as represented by the United …, priority 1986, dated 1988).
Like-named read-outs stand apart in the source and are kept apart here.

How the values were obtained:
[1] = Myocardial uptake/retention and heart:blood ratio, DMIPP compared with monomethyl BMIPP and IPP; conditions: after 60 min
Experimental: (§4) Iodine-125 DMIPP was administered in 6% BSA solution to groups of fasted and fed rats. The animals were killed at time periods varying from 5 min to 8 h and selected tissues and aliquots of blood removed and analyzed in a gamma spectrometer.

[2] = Effect of relative BMIPP/IPP mass ratios on biodistribution properties in rats; format: in vivo; conditions: ratios of up to 6:1
Text: Nevertheless, in the present experiment, the mass of each fatty acid injected was very similar to eliminate any effects of possible synergistic action on myocardial uptake. […] Within a few minutes following injection, however, differences in retention are clearly evident in fasted animals.

[3] = Triple-label experiment, (123I)DMIPP/(131I)BMIPP/(125I)IPP mixture in fasted rats; format: in vivo, fasted female Fischer rats; conditions: for initial uptake or "extraction" phase (myocardial): DMIPP, BMIPP and IPP compared
Text: Nevertheless, in the present experiment, the mass of each fatty acid injected was very similar to eliminate any effects of possible synergistic action on myocardial uptake.

in vivo = test: in vivo; design: species or system female Fischer rats; conditions: rat, iv; for tissue uptake at 5 min / tissue uptake at 0.5 h / tissue uptake at 1 h / tissue uptake at 2 h / tissue uptake at 4 h / tissue uptake at 8 h: distribution of radioactivity
Experimental: (§1) DISTRIBUTION OF RADIOACTIVITY
(% INJECTED DOSE/GRAM OF TISSUE) IN FASTED
(§2) RATS AT VARIOUS TIMES AFTER INTRAVENOUS ADMINISTRATION OF
(§3) 15-(p-[^125 I]IODOPHENYL)-3,3-DIMETHYLPENTADECANOIC ACID (DMIPP)
Mean and range values for five (5, 30 and 60 min) or four (2, 4 and 8 h)
female Fischer rats. Other tissues that were analyzed include spleen,
as §1
(% INJECTED DOSE/ORGAN OF TISSUE) IN FASTED
as §2, §3
Time after injection; Percent injected dose/organ (range)

[4] = rat, in vivo
Experimental: as §4

[5] = Myocardial retention after intravenous administration to unfasted rats; format: in vivo; conditions: first couple of hours after intravenous administration
Text: Dimethyl branching was placed at the beta carbon to compare it with the monomethyl branched analogue and because of ease of synthesis. It is believed that dimethyl branching at the alpha carbon would give similar results.

CC(CCCCCCCCCCCCc1ccc([123I])cc1)CC(=O)O (stereo not drawn) [BMIPP]
loss (washout) from heart [1]: approximately 40%
effect of relative BMIPP/IPP mass ratios on biodistribution properties [2]: insignificant effect
initial uptake or "extraction" phase (myocardial) [3]: very similar for these three agents

CC(C)(CCCCCCCCCCCCc1ccc(I)cc1)CC(=O)O [DMIPP, 15-(p-iodophenyl)-3,3-dimethylpentadecanoic acid]
Blood, distribution of radioactivity (in vivo; 5 min): 8.47 % injected dose/organ
Heart, distribution of radioactivity (in vivo; 5 min): 1.95 % injected dose/organ
Kidneys, distribution of radioactivity (in vivo; 5 min): 1.45 % injected dose/organ
Liver, distribution of radioactivity (in vivo; 5 min): 30.9 % injected dose/organ
Lungs, distribution of radioactivity (in vivo; 5 min): 1.63 % injected dose/organ
Mean Heart:Blood (in vivo; 5 min): 3:1
Thyroid, distribution of radioactivity (in vivo; 5 min): 0.14 % injected dose/organ
Blood, distribution of radioactivity (in vivo; 30 min): 2.30 % injected dose/organ
Heart, distribution of radioactivity (in vivo; 30 min): 2.09 % injected dose/organ
Kidneys, distribution of radioactivity (in vivo; 30 min): 1.49 % injected dose/organ
Liver, distribution of radioactivity (in vivo; 30 min): 28.8 % injected dose/organ
Lungs, distribution of radioactivity (in vivo; 30 min): 0.99 % injected dose/organ
Mean Heart:Blood (in vivo; 30 min): 12:1
Thyroid, distribution of radioactivity (in vivo; 30 min): 0.15 % injected dose/organ
Blood, distribution of radioactivity (in vivo; 60 min): 2.41 % injected dose/organ
Heart, distribution of radioactivity (in vivo; 60 min): 2.24 % injected dose/organ
Kidneys, distribution of radioactivity (in vivo; 60 min): 1.51 % injected dose/organ
Liver, distribution of radioactivity (in vivo; 60 min): 32.4 % injected dose/organ
Lungs, distribution of radioactivity (in vivo; 60 min): 0.98 % injected dose/organ
Mean Heart:Blood (in vivo; 60 min): 12.5:1
Thyroid, distribution of radioactivity (in vivo; 60 min): 0.11 % injected dose/organ
Blood, distribution of radioactivity (in vivo; 120 min): 2.24 % injected dose/organ
Heart, distribution of radioactivity (in vivo; 120 min): 1.99 % injected dose/organ
Kidneys, distribution of radioactivity (in vivo; 120 min): 1.62 % injected dose/organ
Liver, distribution of radioactivity (in vivo; 120 min): 22.8 % injected dose/organ
Lungs, distribution of radioactivity (in vivo; 120 min): 0.87 % injected dose/organ
Mean Heart:Blood (in vivo; 120 min): 12.6:1
Thyroid, distribution of radioactivity (in vivo; 120 min): 0.17 % injected dose/organ
Blood, distribution of radioactivity (in vivo; 240 min): 2.04 % injected dose/organ
Heart, distribution of radioactivity (in vivo; 240 min): 1.56 % injected dose/organ
Kidneys, distribution of radioactivity (in vivo; 240 min): 1.58 % injected dose/organ
Liver, distribution of radioactivity (in vivo; 240 min): 16.7 % injected dose/organ
Lungs, distribution of radioactivity (in vivo; 240 min): 1.77 % injected dose/organ
Mean Heart:Blood (in vivo; 240 min): 11.2:1
Thyroid, distribution of radioactivity (in vivo; 240 min): 0.22 % injected dose/organ
Blood, distribution of radioactivity (in vivo; 480 min): 1.59 % injected dose/organ
Heart, distribution of radioactivity (in vivo; 480 min): 1.05 % injected dose/organ
Kidneys, distribution of radioactivity (in vivo; 480 min): 1.34 % injected dose/organ
Liver, distribution of radioactivity (in vivo; 480 min): 11.4 % injected dose/organ
Lungs, distribution of radioactivity (in vivo; 480 min): 0.66 % injected dose/organ
Mean Heart:Blood (in vivo; 480 min): 9.3:1
Thyroid, distribution of radioactivity (in vivo; 480 min): 0.28 % injected dose/organ
tissue uptake at 5 min (in vivo; Blood): 1.48 %ID/g
tissue uptake at 0.5 h (in vivo; Blood): 0.42 %ID/g
tissue uptake at 1 h (in vivo; Blood): 0.36 %ID/g
tissue uptake at 2 h (in vivo; Blood): 0.35 %ID/g
tissue uptake at 4 h (in vivo; Blood): 0.31 %ID/g
tissue uptake at 8 h (in vivo; Blood): 0.24 %ID/g
tissue uptake at 5 min (in vivo; Heart): 4.67 %ID/g
tissue uptake at 0.5 h (in vivo; Heart): 5.06 %ID/g
tissue uptake at 1 h (in vivo; Heart): 4.49 %ID/g
tissue uptake at 2 h (in vivo; Heart): 4.37 %ID/g
tissue uptake at 4 h (in vivo; Heart): 3.53 %ID/g
tissue uptake at 8 h (in vivo; Heart): 2.24 %ID/g
tissue uptake at 5 min (in vivo; Kidneys): 1.39 %ID/g
tissue uptake at 0.5 h (in vivo; Kidneys): 1.47 %ID/g
tissue uptake at 1 h (in vivo; Kidneys): 1.46 %ID/g
tissue uptake at 2 h (in vivo; Kidneys): 1.41 %ID/g
tissue uptake at 4 h (in vivo; Kidneys): 1.39 %ID/g
tissue uptake at 8 h (in vivo; Kidneys): 1.19 %ID/g
tissue uptake at 5 min (in vivo; Liver): 7.73 %ID/g
tissue uptake at 0.5 h (in vivo; Liver): 7.3 %ID/g
tissue uptake at 1 h (in vivo; Liver): 6.02 %ID/g
tissue uptake at 2 h (in vivo; Liver): 5.32 %ID/g
tissue uptake at 4 h (in vivo; Liver): 3.56 %ID/g
tissue uptake at 8 h (in vivo; Liver): 2.52 %ID/g
tissue uptake at 5 min (in vivo; Lungs): 2.15 %ID/g
tissue uptake at 0.5 h (in vivo; Lungs): 1.42 %ID/g
tissue uptake at 1 h (in vivo; Lungs): 1.17 %ID/g
tissue uptake at 2 h (in vivo; Lungs): 1.12 %ID/g
tissue uptake at 4 h (in vivo; Lungs): 0.97 %ID/g
tissue uptake at 8 h (in vivo; Lungs): 0.79 %ID/g
tissue uptake at 5 min (in vivo; Thyroid): 16.7 %ID/g
tissue uptake at 0.5 h (in vivo; Thyroid): 18.5 %ID/g
tissue uptake at 1 h (in vivo; Thyroid): 15.8 %ID/g
tissue uptake at 2 h (in vivo; Thyroid): 17.9 %ID/g
tissue uptake at 4 h (in vivo; Thyroid): 22.9 %ID/g
tissue uptake at 8 h (in vivo; Thyroid): 27.8 %ID/g
heart-to-blood ratio [4]: 10/1
heart:blood ratios, in words [4]: much higher heart:blood ratios
loss (washout) from heart [4]: approximately 24%
myocardial retention, effect of dimethyl branching into the IPP molecule [4]: substantial increase in the myocardial retention
myocardial uptake [4]: high myocardial uptake
radioiodine in the blood, effect of dimethyl branching into the IPP molecule [4]: dramatic decrease of radioiodine in the blood
retention in the heart [4]: prolonged retention
t1/2 (heart retention) [4]: 12 h
time it remained measurable (in the heart) [4]: up to 12 hours
mean heart:blood ratios ([4]; 15 min): greater than 10:1
myocardial retention [5]: essentially irreversible myocardial retention
initial uptake or "extraction" phase (myocardial) [3]: very similar for these three agents
retention and heart:blood ratios (triple label) ([3]; in comparison to BMIPP and IPP): greater retention and higher heart:blood ratios

O=C(O)CCCCCCCCCCCCCCc1ccc([125I])cc1 [IPP, reference compound]
effect of relative BMIPP/IPP mass ratios on biodistribution properties [2]: insignificant effect
initial uptake or "extraction" phase (myocardial) [3]: very similar for these three agents
